Laboratory results published in ChEMBL document CHEMBL1148995, “Antitumor agents from bohemic acid complex, VI. Schaunardimycin” (J Nat Prod, 1984).

Legend:
[1] = system: Mus musculus; test: Toxicity in mouse L1210 cells implanted CDF1 mouse assessed as survivors on day 5 at 3.2 mg/kg, ip single dose on day 1; assay type: organism-based; set-up: dose 3.2 mg/kg, route intraperitoneal; conditions: in vivo
[2] = system: Mus musculus; test: Toxicity in mouse L1210 cells implanted CDF1 mouse assessed as survivors on day 5 at 6.4 mg/kg, ip single dose on day 1; assay type: organism-based; set-up: dose 6.4 mg/kg, route intraperitoneal; conditions: in vivo
[3] = system: L1210; test: Antitumor activity against mouse L1210 cells implanted in CDF1 mouse at 6.4 mg/kg, ip single dose on day 1 relative to control; assay type: functional; conditions: route intraperitoneal
[4] = system: L1210; test: Antitumor activity against mouse L1210 cells implanted in CDF1 mouse assessed as median survival time at 3.2 mg/kg, ip single dose on day 1; assay type: functional; conditions: route intraperitoneal
[5] = system: Mus musculus; test: Toxicity in mouse L1210 cells implanted CDF1 mouse assessed as average weight gain at 12.8 mg/kg, ip single dose on day 1; assay type: organism-based; set-up: dose 12.8 mg/kg, route intraperitoneal; conditions: in vivo
[6] = system: Mus musculus; test: Toxicity in mouse L1210 cells implanted CDF1 mouse assessed as average weight gain at 0.2 mg/kg, ip single dose on day 1; assay type: organism-based; set-up: dose 0.2 mg/kg, route intraperitoneal; conditions: in vivo
[7] = system: L1210; test: Antitumor activity against mouse L1210 cells implanted in CDF1 mouse at 3.2 mg/kg, ip single dose on day 1 relative to control; assay type: functional; conditions: route intraperitoneal
[8] = system: L1210; test: Antitumor activity against mouse L1210 cells implanted in CDF1 mouse assessed as median survival time at 12.8 mg/kg, ip single dose on day 1; assay type: functional; conditions: route intraperitoneal
[9] = system: Mus musculus; test: Toxicity in mouse L1210 cells implanted CDF1 mouse assessed as average weight gain at 3.2 mg/kg, ip single dose on day 1; assay type: organism-based; set-up: dose 3.2 mg/kg, route intraperitoneal; conditions: in vivo
[10] = system: Mus musculus; test: Toxicity in mouse L1210 cells implanted CDF1 mouse assessed as average weight gain at 1.6 mg/kg, ip single dose on day 1; assay type: organism-based; set-up: dose 1.6 mg/kg, route intraperitoneal; conditions: in vivo
[11] = system: L1210; test: Antitumor activity against mouse L1210 cells implanted in CDF1 mouse assessed as median survival time at 0.8 mg/kg, ip single dose on day 1; assay type: functional; conditions: route intraperitoneal
[12] = system: L1210; test: Antitumor activity against mouse L1210 cells implanted in CDF1 mouse assessed as median survival time at 6.4 mg/kg, ip single dose on day 1; assay type: functional; conditions: route intraperitoneal
[13] = system: L1210; test: Antitumor activity against mouse L1210 cells implanted in CDF1 mouse at 1.6 mg/kg, ip single dose on day 1 relative to control; assay type: functional; conditions: route intraperitoneal
[14] = system: Mus musculus; test: Toxicity in mouse L1210 cells implanted CDF1 mouse assessed as median survival time at 25.6 mg/kg, ip single dose on day 1; assay type: organism-based; set-up: dose 25.6 mg/kg, route intraperitoneal; conditions: in vivo
[15] = system: L1210; test: Antitumor activity against mouse L1210 cells implanted in CDF1 mouse at 0.2 mg/kg, ip single dose on day 1 relative to control; assay type: functional; conditions: route intraperitoneal
[16] = system: Mus musculus; test: Toxicity in mouse L1210 cells implanted CDF1 mouse assessed as average weight gain at 6.4 mg/kg, ip single dose on day 1; assay type: organism-based; set-up: dose 6.4 mg/kg, route intraperitoneal; conditions: in vivo
[17] = system: L1210; test: Antitumor activity against mouse L1210 cells implanted in CDF1 mouse assessed as median survival time at 0.4 mg/kg, ip single dose on day 1; assay type: functional; conditions: route intraperitoneal
[18] = system: Mus musculus; test: Toxicity in mouse L1210 cells implanted CDF1 mouse assessed as average weight gain at 0.8 mg/kg, ip single dose on day 1; assay type: organism-based; set-up: dose 0.8 mg/kg, route intraperitoneal; conditions: in vivo
[19] = system: Mus musculus; test: Toxicity in mouse L1210 cells implanted CDF1 mouse assessed as average weight gain at 0.4 mg/kg, ip single dose on day 1; assay type: organism-based; set-up: dose 0.4 mg/kg, route intraperitoneal; conditions: in vivo
[20] = system: L1210; test: Antitumor activity against mouse L1210 cells implanted in CDF1 mouse at 0.4 mg/kg, ip single dose on day 1 relative to control; assay type: functional; conditions: route intraperitoneal
[21] = system: L1210; test: Antitumor activity against mouse L1210 cells implanted in CDF1 mouse at 12.8 mg/kg, ip single dose on day 1 relative to control; assay type: functional; conditions: route intraperitoneal
[22] = system: Mus musculus; test: Toxicity in mouse L1210 cells implanted CDF1 mouse assessed as survivors on day 5 at 0.4 mg/kg, ip single dose on day 1; assay type: organism-based; set-up: dose 0.4 mg/kg, route intraperitoneal; conditions: in vivo
[23] = system: Mus musculus; test: Toxicity in mouse L1210 cells implanted CDF1 mouse assessed as survivors on day 5 at 1.6 mg/kg, ip single dose on day 1; assay type: organism-based; set-up: dose 1.6 mg/kg, route intraperitoneal; conditions: in vivo
[24] = system: L1210; test: Antitumor activity against mouse L1210 cells implanted in CDF1 mouse assessed as median survival time at 1.6 mg/kg, ip single dose on day 1; assay type: functional; conditions: route intraperitoneal
[25] = system: L1210; test: Antitumor activity against mouse L1210 cells implanted in CDF1 mouse at 0.8 mg/kg, ip single dose on day 1 relative to control; assay type: functional; conditions: route intraperitoneal
[26] = system: Mus musculus; test: Toxicity in mouse L1210 cells implanted CDF1 mouse assessed as survivors on day 5 at 0.8 mg/kg, ip single dose on day 1; assay type: organism-based; set-up: dose 0.8 mg/kg, route intraperitoneal; conditions: in vivo
[27] = system: L1210; test: Antitumor activity against mouse L1210 cells implanted in CDF1 mouse assessed as median survival time at 0.2 mg/kg, ip single dose on day 1; assay type: functional; conditions: route intraperitoneal
[28] = system: L1210; test: Antitumor activity against mouse L1210 cells implanted in CDF1 mouse at 0.2 mg/kg, ip qd for 1 to 5 days relative to control; assay type: functional; conditions: route intraperitoneal

**Q.** How did the Activity [1] turn out when `CC[C@@]1(O)C[C@H](O[C@H]2C[C@H](N(C)C)[C@H](O[C@H]3C[C@H](O)[C@H](O[C@H]4C[C@H](O)[C@H](O)[C@H](C)O4)[C@H](C)O3)[C@H](C)O2)c2c(cc3c(c2O)C(=O)c2c(O)ccc(O)c2C3=O)[C@H]1C(=O)OC` [MARCELLOMYCIN] was run?
**A.** Active

**Q.** What about the Activity [2] of the same compound?
**A.** Active

**Q.** And the T/C [3]?
**A.** 142%

**Q.** And the MST [4]?
**A.** 8.5 days

**Q.** And the Activity [5]?
**A.** -1.9 g

**Q.** What about the weight gain [6] of the same compound?
**A.** 2.7 g

**Q.** And the T/C [7]?
**A.** 142%

**Q.** And the MST [8]?
**A.** 9.5 days

**Q.** And the Activity [9]?
**A.** -0.5 g

**Q.** What about the weight gain [10] of the same compound?
**A.** 1.4 g

**Q.** What about the MST [11] of the same compound?
**A.** 7 days

**Q.** What about the MST [12] of the same compound?
**A.** 8.5 days

**Q.** And the T/C [13]?
**A.** 133%

**Q.** What about the Activity [14] of the same compound?
**A.** Toxic

**Q.** What about the T/C [15] of the same compound?
**A.** 100%

**Q.** And the Activity [16]?
**A.** -1.7 g

**Q.** And the MST [17]?
**A.** 6.5 days

**Q.** What about the weight gain [18] of the same compound?
**A.** 1.8 g

**Q.** What about the weight gain [19] of the same compound?
**A.** 2.8 g

**Q.** And the T/C [20]?
**A.** 108%

**Q.** And the T/C [21]?
**A.** 158%

**Q.** What about the Activity [22] of the same compound?
**A.** Active

**Q.** And the Activity [23]?
**A.** Active

**Q.** And the MST [24]?
**A.** 8 days

**Q.** And the T/C [25]?
**A.** 117%

**Q.** And the Activity [26]?
**A.** Active

**Q.** And the MST [27]?
**A.** 6 days

**Q.** What about the T/C [28] of the same compound?
**A.** 117%
